Molecules are shown by their SMILES. A value given as a limit tells only on which side of the number the result lay.

This assay deals with T1, SYK (Homo sapiens, UniProt P43405).
T1 construct: 2.5 nM SYK, 400 nM Biotin-Aha-Aha-KEDPDYEWPSAKK
Description: SYK flash plate assay (enzyme assay). Format: biochemical. The procedure, abridged: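 Radiometric Flashplate format: biotinylated peptide substrate (400 nM) and 33P-labelled ATP (10 μM) react with 2.5 nM enzyme for 1 hour at 30 °C in Hepes buffer, pH 7.5. After EDTA quench and washing, counts are taken; staurosporine defines non-specific signal, and IC50 values are derived.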
`Cn1cc(-c2nccc3nc(Nc4ccc5c(c4)NC(=O)CCC5(C)C)nn23)cn1` [E155, 5,5-dimethyl-8-[5-(1-methyl-1H-pyrazol-4-yl)-[1,2,4]triazolo[1,5-c]pyrimidin-2-ylamino]-1,3,4,5-tetrahydro-benzo[b]azepin-2-one] had a 50% inhibitory concentration (IC50) of less than 100 nM.
Next, `CC1(C)C(=O)Nc2cc(Nc3nc4c(N5CCc6ccccc65)nccn4n3)ccc21` [E73, 6-[8-(2,3-dihydro-indol-1-yl)-[1,2,4]triazolo[1,5-a]pyrazin-2-ylamino]-3,3-dimethyl-1,3-dihydro-indol-2-one]: less than 100 nM; `CC1(C)CCOc2cc(Nc3nc4c(N5CCC6(CC5)CNC(=O)O6)nccn4n3)ccc21` [E55, 8-[2-(4,4-dimethyl-chroman-7-ylamino)-[1,2,4]triazolo[1,5-a]pyrazin-8-yl]-1-oxa-3,8-diaza-spiro[4.5]decan-2-one]: less than 100 nM.
`CC1(C)C(=O)Nc2cc(Nc3nc4c(N5C[C@H](CO)C[C@H]5c5ccccc5)nccn4n3)ccc21` (single isomer, unassigned) [E98, 6-[8-((trans2)-4-hydroxymethyl-2-phenyl-pyrrolidin-1-yl)-[1,2,4]triazolo[1,5-a]pyrazin-2-ylamino]-3,3-dimethyl-1,3-dihydro-indol-2-one] had an IC50 of 100 to 300 nM.
Next, `CC1(C)C(=O)Nc2cc(Nc3nc4c(N5CCc6ccc(C(N)=O)cc65)nccn4n3)ccc21` [E131, 1-[2-(3,3-Dimethyl-2-oxo-2,3-dihydro-1H-indol-6-ylamino)-[1,2,4]triazolo[1,5-a]pyrazin-8-yl]-2,3-dihydro-1H-indole-6-carboxylic acid amide]: less than 100 nM; `CC1(C)C(=O)Nc2cc(Nc3nc4c(C5CCCC5)nccn4n3)ccc21` [E66, 6-(8-cyclopentyl-[1,2,4]triazolo[1,5-a]pyrazin-2-ylamino)-3,3-dimethyl-1,3-dihydro-indol-2-one]: 300 to 3000 nM; `CC1(C)C(=O)Nc2cc(Nc3nc4c(N5C[C@@H](O)C[C@@H]5c5cccc(F)c5)nccn4n3)ccc21` [E62, 6-{8-[(2R,4S)-2-(3-fluoro-phenyl)-4-hydroxy-pyrrolidin-1-yl]-[1,2,4]triazolo[1,5-a]pyrazin-2-ylamino}-3,3-dimethyl-1,3-dihydro-indol-2-one]: 300 to 3000 nM.
Take `CC1(C)C(=O)Nc2cc(Nc3nc4c(N5CCC(COC=O)C5)nccn4n3)ccc21` (stereo not shown) [E34, formic acid 1-[2-(3,3-dimethyl-2-oxo-2,3-dihydro-1H-indol-6-ylamino)-[1,2,4]triazolo[1,5-a]pyrazin-8-yl]pyrrolidin-3-ylmethyl ester]: the IC50 was 100 to 300 nM.
In turn, `Cn1ncc2ccc(Nc3nc4c(-c5ccccc5-c5ccccc5)nccn4n3)cc21` [C20, (8-Biphenyl-2-yl-[1,2,4]triazolo[1,5-a]pyrazin-2-yl)-(1-methyl-1H-indazol-6-yl)-amine] showed an IC50 of 300 to 3000 nM.
As for `CC1(C)C(=O)Nc2cc(Nc3nc4c(N5CC6C(=O)NC(=O)C6C5)nccn4n3)ccc21` (stereo not shown) [E33, 5-[2-(3,3-dimethyl-2-oxo-2,3-dihydro-1H-indol-6-ylamino)-[1,2,4]triazolo[1,5-a]pyrazin-8-yl]-tetrahydro-pyrrolo[3,4-c]pyrrole-1,3-dione], the figure is 100 to 300 nM.
`COc1cc(Nc2nc3c(N4CCN(C)CC4)nccn3n2)cc(OC)c1` [C46, (3,5-dimethoxy-phenyl)-[8-(4-methyl-piperazin-1-yl)-[1,2,4]triazolo[1,5-a]pyrazin-2-yl]-amine]: the IC50 fell in the range of 300 to 3000 nM.
As for `CC1(C)C(=O)Nc2cc(Nc3nc4c(N5CCc6ccc(N)cc65)nccn4n3)ccc21` [E102, 6-[8-(6-amino-2,3-dihydro-indol-1-yl)-[1,2,4]triazolo[1,5-a]pyrazin-2-ylamino]-3,3-dimethyl-1,3-dihydro-indol-2-one], the figure is less than 100 nM; as for `CN1[C@@H]2CC[C@H]1C[C@@H](Nc1nccn3nc(Nc4ccc5c(c4)NC(=O)C5(C)C)nc13)C2` [E78, 3,3-dimethyl-6-[8-((1R,3R,5S)-8-methyl-8-aza-bicyclo[3.2.1]oct-3-ylamino)-[1,2,4]triazolo[1,5-a]pyrazin-2-ylamino]-1,3-dihydro-indol-2-one], 100 to 300 nM; as for `CC1(C)C(=O)Nc2cc(Nc3nc4c(NS(=O)(=O)c5ccccc5)nccn4n3)ccc21` [E111, N-[2-(3,3-dimethyl-2-oxo-2,3-dihydro-1H-indol-6-ylamino)-[1,2,4]triazolo[1,5-a]pyrazin-8-yl]-benzenesulfonamide], 300 to 3000 nM.
Next, `CCC1(O)CCN(c2nccn3nc(Nc4ccc5c(c4)NC(=O)C5(C)C)nc23)CC1` [E44, 6-[8-(4-ethyl-4-hydroxy-piperidin-1-yl)-[1,2,4]triazolo[1,5-a]pyrazin-2-ylamino]-3,3-dimethyl-1,3-dihydro-indol-2-one]: less than 100 nM.
The molecule `CC1(C)C(=O)Nc2cc(Nc3nc4c(N5CCC(CNCC(F)(F)F)C5)nccn4n3)ccc21` (stereo not shown) [E65, 3,3-dimethyl-6-(8-{3[(2,2,2-trifluoro-ethylamino)-methyl]-pyrrolidin-1-yl}-[1,2,4]triazolo[1,5-a]pyrazin-2-ylamino)-1,3-dihydro-indol-2-one] returned an IC50 of 100 to 300 nM.
Next, `CC1(C)C(=O)Nc2cc(Nc3nc4c(N5C[C@@H](CO)C[C@@H]5c5ccccc5)nccn4n3)ccc21` (single isomer, unassigned) [E97, 6-[8-((trans1)-4-hydroxymethyl-2-phenyl-pyrrolidin-1-yl)-[1,2,4]triazolo[1,5-a]pyrazin-2-ylamino]-3,3-dimethyl-1,3-dihydro-indol-2-one]: 300 to 3000 nM; `CC1(C)C(=O)Nc2cc(Nc3nc4c(-c5cnn(C6CCNCC6)c5)nccn4n3)ccc21` [E150, 3,3-dimethyl-6-[8-(1-piperidin-4-yl-1H-pyrazol-4-yl)-[1,2,4]triazolo[1,5-a]pyrazin-2-ylamino]-1,3-dihydro-indol-2-one]: less than 100 nM.
Next, `CC1(C)C(=O)Nc2cc(Nc3nc4c(N5CCNC(=O)CC5)nccn4n3)ccc21` [E74, 3,3-dimethyl-6-[8-(5-oxo-[1,4]diazepan-1-yl)-[1,2,4]triazolo[1,5-a]pyrazin-2-ylamino]-1,3-dihydro-indol-2-one]: less than 100 nM; `CC1(C)C(=O)Nc2cc(Nc3nc4c(N5C[C@@H](O)C[C@H]5c5ccccc5)nccn4n3)ccc21` [E29, 6-[8-((2S,4S)-4-hydroxy-2-phenyl-pyrrolidin-1-yl)-[1,2,4]triazolo[1,5-a]pyrazin-2-ylamino]-3,3-dimethyl-1,3-dihydro-indol-2-one]: 3000 to 50000 nM; `CC1(C)C(=O)Nc2cc(Nc3nc4c(N5CCCC6(COC6)C5)nccn4n3)ccc21` [C92, 3,3-dimethyl-6-[8-(2-oxa-6-aza-spiro[3.5]non-6-yl)-[1,2,4]triazolo[1,5-a]pyrazin-2-ylamino]-1,3-dihydro-indol-2-one]: less than 100 nM.
`CN1CCOc2cc(-c3nccn4nc(Nc5ccc6c(c5)NC(=O)C6(C)C)nc34)cnc21` [E144, 3,3-dimethyl-6-[8-(4-methyl-3,4-dihydro-2H-pyrido[3,2-b][1,4]oxazin-7-yl)-[1,2,4]triazolo[1,5-a]pyrazin-2-ylamino]-1,3-dihydro-indol-2-one] registered an IC50 of less than 100 nM.
`CN1CCCC(Nc2nccn3nc(Nc4ccc5c(c4)NC(=O)C5(C)C)nc23)C1` (stereo not shown) [C107, 3,3-dimethyl-6-[8-(1-methyl-piperidin-3-ylamino)[1,2,4]triazolo[1,5-a]yrazin-2-ylamino]-1,3-dihydro-indol-2-one] gave an IC50 of 300 to 3000 nM.
As for `c1ccc(-c2ccccc2-c2nccn3nc(Nc4cccc(N5CCOCC5)c4)nc23)cc1` [C17, (8-Biphenyl-2-yl-[1,2,4]triazolo[1,5-a]pyrazin-2-yl)-(3-morpholin-4-yl-phenyl)-amine], the figure is 300 to 3000 nM; as for `CC(=O)N1CCC(N(C)c2nccn3nc(Nc4ccc5c(c4)NC(=O)C5(C)C)nc23)CC1` [E14, 6-{8-[(1-acetyl-piperidin-4-yl)-methyl-amino]-[1,2,4]triazolo[1,5-a]pyrazin-2-ylamino}-3,3-dimethyl-1,3-dihydro-indol-2-one], 100 to 300 nM; as for `CC1(C)C(=O)Nc2cc(Nc3nc4c(N5C[C@H](OC=O)C[C@@H]5c5ccccc5C(F)(F)F)nccn4n3)ccc21` [E85, formic acid (3R,5R)-1-[2-(3,3-dimethyl-2-oxo-2,3-dihydro-1H-indol-6-ylamino)-[1,2,4]triazolo[1,5-a]pyrazin-8-yl]-5-(2-trifluoromethyl-phenyl)-pyrrolidin-3-yl ester], 3000 to 50000 nM.
As for `CC1(C)C(=O)Nc2cc(Nc3nc4c(N5CCc6nc(O)nc(O)c6C5)nccn4n3)ccc21` [E1, 6-[8-(2,4-dihydroxy-7,8-dihydro-5H-pyrido[4,3-d]pyrimidin-6-yl)-[1,2,4]triazolo[1,5-a]pyrazin-2-ylamino]-3,3-dimethyl-1,3-dihydro-indol-2-one], the figure is less than 100 nM; as for `CN1CCC(C)(C)c2cc(-c3nccn4nc(Nc5ccc6c(c5)NC(=O)C6(C)C)nc34)ccc21` [E143, 3,3-dimethyl-6-[8-(1,4,4-trimethyl-1,2,3,4-tetrahydro-quinolin-6-yl)-[1,2,4]triazolo[1,5-a]pyrazin-2-ylamino]-1,3-dihydro-indol-2-one], 100 to 300 nM.
Molecule `CC1(C)C(=O)Nc2cc(Nc3nc4c(N5CCC6(CC5)NC(=O)NC6=O)nccn4n3)ccc21` [E28, 8-[2-(3,3-dimethyl-2-oxo-2,3-dihydro-1H-indol-6-ylamino)-[1,2,4]triazolo[1,5-a]pyrazin-8-yl]-1,3,8-triaza-spiro[4.5]decane-2,4-dione] yielded an IC50 of less than 100 nM.
The molecule `CC1(C)C(=O)Nc2cc(Nc3nc4c(N[C@H]5C[C@@H](N)C5)nccn4n3)ccc21` [C98, 6-[8-(cis-3-amino-cyclobutylamino)-[1,2,4]triazolo[1,5-a]pyrazin-2-ylamino]-3,3-dimethyl-1,3-dihydro-indol-2-one] returned an IC50 of less than 100 nM.
`Cn1cc(-c2nccn3nc(Nc4cc5c(cc4F)C(C)(C)CC(=O)N5)nc23)cn1` [E121, 6-fluoro-4,4-dimethyl-7-[8-(1-methyl-1H-pyrazol-4-yl)-[1,2,4]triazolo[1,5-a]pyrazin-2-ylamino]-3,4-dihydro-1H-quinolin-2-one] returned an IC50 of 300 to 3000 nM.
